# Where two headings read alike, the source gives them in different places.
# What was measured:
# Type in all cases: in vivo
# [1] = test system: Plasmopara viticola; test: Test A: grape downy mildew, test suspension sprayed after inoculation of grape seedlings, visual disease rating; details: 200 ppm, 100 = 100% disease control
# Description: General protocol for preparing test suspensions for Tests A-J: The test compounds were first dissolved in acetone in an amount equal to 3% of the final volume and then suspended at the desired concentration (in ppm) in acetone and purified water (50/50 mix) containing 250 ppm of the surfactant Trem® 014 (polyhydric alcohol esters). The resulting test suspensions were then used in tests A-J. Spraying a 200 ppm test suspension to the point of run-off on the test plants was the equivalent of a rate of 500 g/ha. […] Grape seedlings were inoculated with a spore suspension of Plasmopara viticola (the causal agent of grape downy mildew) and incubated in a saturated atmosphere at 20° C. for 24 h. After a short drying period, the grape seedlings were sprayed with the test suspension to the point of run-off and then moved to a growth chamber at 20° C. for 5 days, after which time the grape seedlings were placed back into a saturated atmosphere at 20° C. for 24 h. Upon removal, visual disease ratings were made. […] A dash (-) indicates no test results.
# [2] = test system: Rhizoctonia solani; test: Test B: turf brown patch on bentgrass seedlings, sprayed the day before inoculation, visual disease rating; details: 200 ppm, 100 = 100% disease control
# Description: General protocol for preparing test suspensions for Tests A-J: The test compounds were first dissolved in acetone in an amount equal to 3% of the final volume and then suspended at the desired concentration (in ppm) in acetone and purified water (50/50 mix) containing 250 ppm of the surfactant Trem® 014 (polyhydric alcohol esters). The resulting test suspensions were then used in tests A-J. Spraying a 200 ppm test suspension to the point of run-off on the test plants was the equivalent of a rate of 500 g/ha. […] The test suspension was sprayed to the point of run-off on bentgrass (Agrostis sp.) seedlings. […] A dash (-) indicates no test results. All results are for 200 ppm except where followed by “*”, which indicates 40 ppm.
# [3] = test system: Botrytis cinerea; test: Test C: tomato Botrytis on tomato seedlings, sprayed the day before inoculation, visual disease rating; details: 200 ppm, 100 = 100% disease control; for pest or weed control at 200 ppm: Botrytis cinerea, 120 h
# Outline: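 Rate: 200 ppm sprayed to run-off, corresponding to 500 g/ha; flagged values used 40 ppm. Vehicle was aqueous acetone (1:1) plus 250 ppm surfactant, compounds predissolved in acetone at 3% of volume. Plants were tomato seedlings.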
# [4] = test system: Alternaria solani; test: Test D: tomato early blight, sprayed the day before inoculation, visual disease rating; details: 200 ppm, 100 = 100% disease control; for pest or weed control at 200 ppm: Alternaria solani, 168 h
# Outline: (§1)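 Plants received a run-off spray at 200 ppm (equivalent to 500 g/ha) or, for starred values, 40 ppm. Formulation used acetone at 3% of volume in a 50/50 acetone/water mix carrying 250 ppm Trem® 014.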
# [5] = test system: Phytophthora infestans; details: 200 ppm, 100 = 100% disease control
# [6] = test system: Septoria nodorum; test: Test F: wheat glume blotch on wheat seedlings, sprayed the day before inoculation, visual disease rating; details: 200 ppm, 100 = 100% disease control; for pest or weed control at 200 ppm: Parastagonospora nodorum, 264 h
# Outline: as §1
# [7] = test system: Septoria tritici; test: Test G: wheat leaf blotch on wheat seedlings, sprayed the day before inoculation, visual disease rating; details: 200 ppm, 100 = 100% disease control; for pest or weed control at 200 ppm: Zymoseptoria tritici, 504 h
# Outline: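 Seedlings receive a protective spray of test suspension in acetone/water carrying 250 ppm surfactant, mostly at 200 ppm and at 40 ppm where marked. They are inoculated the next day, kept saturated at 24° C for 48 h, then held at 20° C for 19 days before visual scoring.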
# [8] = test system: Puccinia recondita f. sp. tritici; test: Test I: wheat leaf rust on wheat seedlings, sprayed the day before inoculation, visual disease rating; details: 200 ppm, 100 = 100% disease control; for pest or weed control at 200 ppm: Puccinia recondita, 168 h
# Outline: as §1
# [9] = test system: Erysiphe graminis f. sp. tritici; test: Test J: wheat powdery mildew on wheat seedlings, sprayed the day before inoculation, visual disease rating; details: 200 ppm, 100 = 100% disease control; for pest or weed control at 200 ppm: Blumeria graminis, 168 h
# Outline: as §1
# [10] = 0 = no control relative to controls
Molecule,"Test A disease control rating [1, 10] [%]","Test B disease control rating [2, 10] [%]","Test C disease control rating [3, 10] [%]","Test D disease control rating [4, 10] [%]","Test E disease control rating [5, 10] [%]","Test F disease control rating [6, 10] [%]","Test G disease control rating [7, 10] [%]","Test I disease control rating [8, 10] [%]","Test J disease control rating [9, 10] [%]",Test A disease control rating ([1]; 0 = no control) [%],Test B disease control rating ([2]; 0 = no control) [%],Test C disease control rating ([3]; 0 = no control) [%],Test D disease control rating ([4]; 0 = no control) [%],Test F disease control rating ([6]; 0 = no control) [%],Test G disease control rating ([7]; 0 = no control) [%],Test I disease control rating ([8]; 0 = no control) [%],Test J disease control rating ([9]; 0 = no control) [%],further results
"2-bromo-1-(4-chlorophenyl)-5-(2,6-difluorophenyl)-2-methyl-1H-imidazole [Compound 740]",37,99,100,100,0,100,100,100,100,,,,,,,,,
"Cc1ncc(-c2ccc(F)cc2)n1-c1ccc(Cl)cc1 [Compound 4, 1-(4-chlorophenyl)-5-(4-fluorophenyl)-2-methyl-1H-imidazole]",0,18,,,0,,,,,,,,,,,,,"pest or weed control at 200 ppm [3, 10]: 67%; pest or weed control at 200 ppm [4, 10]: 0%; pest or weed control at 200 ppm [6, 10]: 0%; pest or weed control at 200 ppm [7, 10]: 93%; pest or weed control at 200 ppm [8, 10]: 79%; pest or weed control at 200 ppm [9, 10]: 94%"
"Cc1nc(Cl)c(-c2ccc(F)cc2)n1-c1ccc(Cl)cc1 [Compound 5, 4-chloro-1-(4-chlorophenyl)-5-(4-fluorophenyl)-2-methyl-1H-imidazole]",0,38,,,0,,,,,,,,,,,,,"pest or weed control at 200 ppm [3, 10]: 98%; pest or weed control at 200 ppm [4, 10]: 99%; pest or weed control at 200 ppm [6, 10]: 0%; pest or weed control at 200 ppm [7, 10]: 100%; pest or weed control at 200 ppm [8, 10]: 88%; pest or weed control at 200 ppm [9, 10]: 99%"
Cc1nn(C)c(-c2ccc(Cl)c(F)c2)c1-c1c(F)cccc1F [compound 67],7,98,44,99,0,0,80,0,99,,,,,,,,,
Cc1nn(C)c(-c2ccc(Cl)c(F)c2)c1-c1c(F)cc(F)cc1F [compound 104],,0,92,98,0,0,32,0,95,,,,,,,,,
COc1cc(F)c(-c2c(C)nn(C)c2-c2ccc(Cl)c(OC)c2)c(F)c1 [compound 111],,81,99,99,0,100,100,89,99,,,,,,,,,
COc1cc(F)c(-c2c(C)nn(C)c2-c2ccc(Cl)c(F)c2)c(F)c1 [compound 115],,99,99,99,0,98,99,98,100,,,,,,,,,
Fc1ccc(-n2cnc(Cl)c2-c2ccc(F)cc2Cl)cc1 [compound 178],,,,,,,,,,9,0,99,99,0,100,74,100,
Cc1ccc(-n2cnc(Cl)c2-c2ccc(F)cc2Cl)cc1 [compound 179],,,,,,,,,,0,0,99,9,0,98,99,99,Test E disease control rating ([5]; 0 = no control): 0%
Fc1ccc(-n2cnc(Cl)c2-c2c(F)cccc2Cl)cc1 [compound 180],,,,,,,,,,0,88,99,99,0,98,99,100,
Fc1ccc(-c2c(Cl)ncn2-c2ccc(Cl)c(F)c2)c(Cl)c1 [compound 191],,,,,,,,,,0,0,99,26,0,97,80,93,Test E disease control rating ([5]; 0 = no control): 29%
Fc1cc(-n2cnc(Cl)c2-c2c(F)cccc2Cl)ccc1Cl [compound 192],,,,,,,,,,0,21,99,16,0,94,84,99,Test E disease control rating ([5]; 0 = no control): 0%
Cc1cc(C)nc(-c2cnnn2-c2cc(Cl)cc(Cl)c2)n1 [compound 644],0,,94,0,0,0,0,0,0,,,,,,,,,

# From patent US20110045101A1, “FUNGICIDAL SUBSTITUTED AZOLES” (E.I. Du Pont De Nemours and Company, priority 2009, published 2011)
